Reference: patent EP1825852A1, “ST104P as an anti-angiogenic agent” (Sagittarius Life Science Corp., priority 2006, dated 2007)
Where two headings read alike, the source gives them in different places.

Columns and labels:
[1] = system: BAEC; assay: Cytotoxicity: cell proliferation assay (crystal violet stain) and morphology; type: cell-based, Bovine
Method: (§1) Fig.1. The cytotoxicity of ST104P in different types of cells. […] After treatment of ST104P at 10-500 µg/ml in DMEM medium containing 10% FCS for 24 h, the morphologies of BAEC and 3T3 cells were monitored under phase contrast microscopy. The pictures were taken at 400× magnification. (B). The dose-dependent effect of ST104P on the proliferation of different cells. After treatment with ST104P at 10-500 µg/ml or PBS for 48 h, the viability of various cells was determined by crystal violet method in an ELISA reader. Each data represent mean ± SD of quadruplicate experiments. Asterisks indicated statistic significance versus control (P<0.001).
Human umbilical vein endothelial cells (HUVEC; passage 3 to 6) were isolated from umbilical veins and cultured in RPMI 1640 medium (Life Technologies, Gaithersburg, MD) containing 15% fetal calf serum, 20 U/ml porcine heparin (Sigma Chemical Co), and 100 µg/ml endothelial cell growth supplement (Calbiochem; La Jolla, CA). Bovine aortic endothelial (BAEC) cells, 3T3 cells, and LL2 Lewis lung carcinoma cells were cultured with DMEM (Dulbecco's Modified Eagle Medium; Gibco BRL, Rockville, MD) containing 10% fetal calf serum (PAA, Austria), 2 mM glutamine, 100 U/ml penicillin and 100 µg/ml streptomycin (Gibco BRL, Rockville, MD) in 5% CO2 at 37 °C. Human vascular endothelial EA.hy926 cells were cultured in DMEM (Dulbecco's Modified Eagle Medium; Gibco BRL, Rockville, MD) containing 10% fetal calf serum (PAA, Austria), 100 µM sodium hypoxanthine, 0.4 µM aminopterin, 16 µM thymidine (HAT; Gibco BRL, Rockville, MD), 2 mM glutamine, 100 U/ml penicillin and 100 µg/ml streptomycin (Gibco BRL, Rockville, MD) in 5% CO2 at 37 °C.
The effect of ST104P on the viability of various cells was determined using crystal violet stain assay. Briefly, cells cultured in 96-well plate (2-4 x10^3 cells/well) were treated with various doses of ST104P for 48 h. […] The dye in viable cells was measured by reading the optical density at 590 nm using a scanning multi-well spectrophotometer (ELISA reader; Dynatech Laboratories, Chantilly, VA).

[2] = system: EA.hy926; assay: Cytotoxicity: cell proliferation assay (crystal violet stain); type: cell-based, Human
Method: as §1
(§2) Human umbilical vein endothelial cells (HUVEC; passage 3 to 6) were isolated from umbilical veins and cultured in RPMI 1640 medium (Life Technologies, Gaithersburg, MD) containing 15% fetal calf serum, 20 U/ml porcine heparin (Sigma Chemical Co), and 100 µg/ml endothelial cell growth supplement (Calbiochem; La Jolla, CA). […]
(§3) The effect of ST104P on the viability of various cells was determined using crystal violet stain assay. […] The dye in viable cells was measured by reading the optical density at 590 nm using a scanning multi-well spectrophotometer (ELISA reader; Dynatech Laboratories, Chantilly, VA).

[3] = system: 3T3 cells; assay: Cytotoxicity: cell proliferation assay (crystal violet stain) and morphology; type: cell-based
Method: as §1, §2, §3

[4] = system: BAEC; assay: Cell migration assay (Boyden chamber, bFGF as chemoattractant); type: cell-based, Bovine; details: incubation 6 h, bFGF 100 ng/ml
Method: Fig. 2. ST104P inhibited the migration of endothelial cells. The effect of ST104p on migration of endothelial cells. BAEC were plated in 6-well plate (1 x 10^6 cells per well) and treated with vasostatin of indicated dose for 12 h. After trypsinization, endothelial cells were applied to top wells in Boyden chamber to initiated migration toward chemoattractant bFGF (100 ng/ml) in the bottom wells. The migrated cells on filter were stained and counted. Each point represents mean ± SEM of triplicate experiments.
Endothelial cells were treated with ST104P of indicated doses for 6-12 h, harvested by trysinization, collected by centrifugation, resuspended in DMEM media containing 0.1% BSA, and seeded in triplicate for each dose and controls in the upper compartment of the chamber (1.2 x 10^5 cells in 400 µl). The lower compartment was filled with 200 µl of the DMEM media containing 100 ng/ml bFGF (R&D, Minneapolis, MN) as the chemoattractant, or with DMEM media containing 0.1% BSA as the negative control (to evaluate random migration). […] After incubation for 2-4 h in a humidified 5% CO2 atmosphere at 37 °C, cells on the upper side of the filter were removed, and those that had migrated to the lower side were fixed in absolute ethanol, stained with 10% Giemsa solution (Merck, Germany), and counted as a mean ± SD per filter under five different high power fields.

[5] = system: EA.hy926; assay: as above; type: cell-based, Human; details: EA.hy926, incubation 6 h, bFGF 100 ng/ml
[6] = system: BAEC; assay: Tube formation assay in Matrigel; type: cell-based, Bovine; details: 20-100 µg/ml
Method: (§4) Fig. 3. ST104P abolished the tube formation of endothelial cells. Application of ST104P perturbed tubular network of BAEC or EA.hy9236 cells in Matrigel. Endothelial cells were applied to Matrigel-coated plate in the absence or presence of ST104P. After 8 h, the tubular structures of BAEC cells were monitored and recorded under light microscopy. The pictures were taken at 400× magnification.
(§5) Matrigel (Becton Dickinson; Bedford, MA) was diluted with cold serum-free medium to 10 mg/ml. Two hundred µl of the diluted solution were added to each well in 24-well plate and allowed to form a gel at 37 °C for 30 min. BAEC or HUVEC (1.5 x 10^5 cells per ml) were initially incubated for 15 min with various doses of ST104P in complete medium. Two hundred µl of the cell suspension (3 x 10^4 cells) were then subsequently added to each well and incubated for 6-8 h at 37 °C in 5% CO2. Under these conditions endothelial cells form delicate networks of tubes that are detectable within 2-3 h and are fully developed after 8-12 h. After incubation with ST104P, the wells were washed and the Matrigel and its endothelial tubes were fixed with 3% paraformaldehyde.

[7] = system: EA.hy926 cells; assay: Tube formation assay in Matrigel; type: cell-based, Human; details: 20-100 µg/ml
Method: as §4, §5

[8] = system: MMP-2; assay: MMPs secretion by endothelial cells, gelatin zymography; type: cell-based; details: BAEC and EA.hy926, even at dose as low as 10 µg/ml, 24 h, conditioned media
Method: (§6) ST104P decreases the MMPs secretion by endothelial cells. The conditioned media of BAECs or EA.hy926 cells (in 24-well plate at 1x10^4 cells/well) treated with PBS or ST104P (10-500 µg/ml) for […] were collected to analyze the expression of MMPs by gelatin-PAGE zymography.
(§7) Secretion of MMPs by endothelial cells was assessed by 0.1% gelatin-SDS-PAGE zymography. Briefly, endothelial cells near 80% confluence were washed twice with serum-free media and treated with various doses of vasostatin for 24-48 h: Conditioned media were collected and assayed for protein concentration by Bradford assay. Aliquots of conditioned media were subjected to separation with 10% SDS-PAGE containing 0.1% type A gelatin (Sigma; St. Louis, MO). After electrophoresis, gel was washed twice with 2.5% Triton X-100, incubated in buffer containing 40 mM Tris-HCl, pH 8.0, 10 mM CaCl2, 0.01% sodium azide at 37 °C for 12-24 h, stained with 0.25% Coomassie Blue R-250 in 50% methanol and 10% acetic acid for 1 h, and destained with 10 % acetic acid, 20% methanol. The gelatinolytic regions by MMPs were visualized as white bands in blue background.

[9] = system: MMP-9; assay: as above; type: cell-based; details: BAEC and EA.hy926, even at dose as low as 10 µg/ml, 24 h, conditioned media
Method: as §6, §7

[10] = system: Lewis lung carcinoma; type: in vivo, C57BL/6J mice
Method: Fig. 6. Injection of ST104P suppressed tumor growth of Lewis lung carcinoma in mice. The subcutaneous dorsa of mice were implanted with Lewis lung carcinomas. The tumor sizes in mice during treatment with ST104P or control were recorded. […] Each point represents mean ± SEM for ten mice.
Fig. 7. Injection of ST104P prolonged the survival of tumor-bearing mice. The subcutaneous dorsa of mice were implanted with Lewis lung carcinomas. The tumor sizes in mice during treatment with ST104P or control were recorded. […] Each point represents mean ± SEM for ten mice. The overall survival rates of ten mice in PBS- or ST104P-treated group were recorded.
Animal study was carried out in the animal facility of Kaohsiung Veterans General Hospital in accordance with institutional guidelines. Male C57BL/6J mice (6- to 8-week-old; Animal Center of National Cheng Kung University, Taiwan) were used. Mice were acclimated and caged in groups of four or less. All mice were fed with a diet of animal chow and water ad libitum. Animals were anesthetized in a methoxyflurane chamber prior to all procedures and were observed until fully recovered. Animals were sacrificed by a lethal dose of methoxyflurane.
C57BL/6J mice were implanted with Lewis lung carcinomas cells using the techniques described previously (O'Reilly et al., Cell 88, 277-285,1997). Briefly, the LL2 Lewis lung carcinoma cells were resuspended in PBS at the concentration of 2.5 x 10^6 cells per ml and injected into C57B16/J mice (n = 20) with 0.1 ml of the cell suspension to induce tumor. Tumors were measured with a dial-caliper and volumes were determined using the formula width^2 × length × 0.52. After tumor volumes reached 100-200 mm^3, mice were randomized into two groups receiving periodic injection of ST104P (n=10) or saline (n = 10) by subcutaneous injection at a site near tumor. The measurement of tumor size was terminated when mice began to die. In addition, the survival rate of mice in different groups was recorded and analyzed by Kaplan-Mier Survival analysis.

[11] = in vivo
[12] = system: CAM; assay: Chorioallantoic membrane (CAM) assay
Method: The CAMs in 8-day old chicken embryos were incubated with saline or ST104P (50 or 200 µg in saline) for 48 h. The angiogenesis profiles on CAMs were recorded under dissection microscope.
The CAM assay was carried out as described previously (Sheu et al., Anticancer Res 18, 4435-4441,1998). Briefly, fertilized White Leghorn chicken eggs were purchased from Taiwan Provincial Research Institute for Animal Health (Hsin-Chu, Taiwan) and incubated at 37 °C with 60% humidity. On day 3, a square window was opened in the shell, and 2 to 3 ml of albumen was removed to allow detachment of the developing CAM. The window was sealed with a glass, and the eggs were returned to the incubator. On day 8, 50-100 µg ST104P in saline was injected onto the top of the CAM. The CAMs were examined daily until day 10-12, when the angiogenic response peaks, and photographed in ovo with a stereomicroscope equipped with Zeiss MC63 camera system (Zeiss, Oberkochen, Germany). The experiments were carried out using 10 eggs per group.

[13] = molar equivalent given for 500 µg/ml, read-out: IC50
[14] = proliferation/viability, 48 h, crystal violet

Substance: tetrameric cyclic compound of 4,5-dihydroxynaphthalene-2,7, disulfonic acid linked by methylene bridges [ST104P]
- morphologies of cells ([1]; 10-500 µg/ml, DMEM with 10% FCS, 24 h, phase contrast microscopy): altered the morphologies of endothelial cells
- IC50 [1, 13]: > 350 µM
- IC50 [1, 14]: > 500 µg/mL
- IC50 ([2]; EA.hy926, molar equivalent given for 500 µg/ml, read-out: IC50): > 350 µM
- IC50 ([2]; proliferation/viability, EA.hy926, 48 h, crystal violet): > 500 µg/mL
- IC50 [3, 13]: > 350 µM
- IC50 [3, 14]: > 500 µg/mL
- IC50 (migration toward chemoattractant bFGF) [4]: 100 µg/mL
- IC50 (migration toward chemoattractant bFGF) [5]: 100 µg/mL
- tube formation (vessel-like structure in Matrigel) [6]: effectively abolished the vessel-like structure
- tube formation (vessel-like structure in Matrigel) [7]: effectively abolished the vessel-like structure
- secretion of MMP-2 by endothelial cells [8]: potently inhibited the secretion
- secretion of MMP-9 by endothelial cells [9]: potently inhibited the secretion
- decrease of average tumor size versus saline-treated groups ([10]; 100 µg, subcutaneous injection for four times): ~ 40%
- average tumor size ([10]; 100 µg, subcutaneous injection for four times, saline-treated 4876 ± 670 mm^3, P < 0.05): 2620 ± 320 mm^3
- weight loss or adverse effects ([10]; mouse, in vivo): no evident weight loss or adverse effects
- survival of tumor-bearing mice ([10]; versus vehicle-treated group, P < 0.01, Kaplan-Meier): survived significantly longer
- tolerability [11]: well tolerated
- inhibition of angiogenesis ([12]; 50 µg per CAM, 8-day old chick embryos): 50%
- mortality of chick embryos ([12]; 200 µg per CAM, 9 out of 10 died versus 0 in PBS-treated group, used as index of angiogenesis inhibition): 90%
- vascular network on CAMs ([12]; 50 or 200 µg in saline, 48 h, 8-day old chicken embryos): severely destroyed
